Laboratory results reported in the C3SDB collision cross section collection.

conditions: [M+H]+; instrument: TW; calibrated with polyalanine and drug standards

Structure (SMILES)	collision cross section (N2) [Å²]
COC(=O)[C@@H]1OC(=O)C2OC23[C@@]1(C)CCC1[C@]2(C)C(C[C@@H](O)[C@]13C)C(C)(C)[C@H](OC(C)=O)C[C@@H]2OC(C)=O (stereo partly drawn) [DESACETYL (7)KHIVORINIC ACID, METHYL ESTER]	216.9
C[C@@H]1C[C@H]2[C@@H]3CCC4=CC(=O)C=C[C@]4(C)[C@@]3(F)[C@@H](O)C[C@]2(C)[C@@]1(O)C(=O)CO [DEXAMETHASONE]	187.9
CC1=NS(=O)(=O)c2cc(Cl)ccc2N1 [DIAZOXIDE]	143.7
CCCCCC1C(=O)CCC1CC(=O)O (stereo not drawn) [DIHYDROJASMONIC ACID]	147
Cc1c(C(N)=O)cc([N+](=O)[O-])cc1[N+](=O)[O-] [DINITOLMIDE]	143.7
COc1ccc(-c2cc(=O)c3c(O)cc(O)cc3o2)cc1O [DIOSMETIN]	164.8
COc1ccc(-c2cc(=O)c3c(O)cc(O[C@@H]4O[C@H](CO[C@@H]5O[C@@H](C)[C@H](O)[C@@H](O)[C@H]5O)[C@@H](O)[C@H](O)[C@H]4O)cc3o2)cc1O [DIOSMIN]	242.5
CC(=O)Oc1ccccc1C(=O)Oc1ccccc1C(=O)O [DIPLOSALSALATE]	159.4
COc1ccc(-c2coc3c(O)c(O)c(OC)cc3c2=O)cc1 [DIPTERYXIN]	168.5
COc1cccc2c1C(=O)c1c(O)c3c(c(O)c1C2=O)C[C@@](O)(C(=O)CO)C[C@@H]3O[C@H]1C[C@H](N)[C@H](O)[C@H](C)O1 [DOXORUBICIN]	227
OCC(O)CN1CCN(c2ccccc2)CC1 (stereo not drawn) [DROPROPIZINE]	155.7
Cn1c(=O)c2c(ncn2CC(O)CO)n(C)c1=O (stereo not drawn) [DYPHYLLINE]	152.6
CC[C@H]1CN2CCc3cc(OC)c(OC)cc3[C@@H]2C[C@@H]1C[C@H]1NCCc2cc(OC)c(OC)cc21 [EMETINE]	219.6
CC1(C)[C@@H](O)CC[C@]2(C)[C@H]3C(=O)C=C4[C@@H]5C[C@@](C)(C(=O)O)CC[C@]5(C)CC[C@@]4(C)[C@]3(C)CC[C@@H]12 [ENOXOLONE]	213.9
CC(=O)Oc1cc(OC(C)=O)c2c(c1)O[C@H](c1ccc(OC(C)=O)c(OC(C)=O)c1)[C@H](OC(C)=O)C2 [EPICATECHIN PENTAACETATE]	207.3
Oc1cc(O)c2c(c1)O[C@H](c1ccc(O)c(O)c1)[C@H](O)C2 [EPICATECHIN]	161.5
C[C@]12CC[C@@H]3c4ccc(O)cc4CC[C@H]3[C@@H]1C[C@H](O)[C@@H]2O [EPIESTRIOL]	153.6
C[C@]12CC[C@H]3[C@@H](CCC4=CC(=O)CC[C@@]43C)[C@@H]1CC[C@H]2O [EPITESTOSTERONE]	170.7
CC[C@H]1OC(=O)[C@H](C)[C@@H](O[C@H]2C[C@@](C)(OC)[C@@H](O)[C@H](C)O2)[C@H](C)[C@@H](O[C@@H]2O[C@H](C)C[C@H](N(C)C)[C@H]2O)[C@](C)(O)C[C@@H](C)C(=O)[C@H](C)[C@@H](O)[C@]1(C)O [ERYTHROMYCIN]	258.1
CN1CC[C@@]2(C)c3cc(O)ccc3N(C)[C@@H]12 [ESEROLINE]	149.1
CCCCC(=O)O[C@H]1CC[C@H]2[C@@H]3CCc4cc(O)ccc4[C@H]3CC[C@]12C [ESTRADIOL VALERATE]	171
CCOc1ccc2nc(S(N)(=O)=O)sc2c1 [ETHOXZOLAMIDE]	152.7
C=C(C)c1cc2cc(C(C)=O)c(O)cc2o1 [EUPARIN]	143.2
COc1c2ccoc2nc2c(OC)c(OCC(O)C(C)(C)O)ccc12 (stereo not drawn) [EVOXINE]	181.4
CCCCCCOc1ccccc1C(N)=O [EXALAMIDE]	154.6
C=C1C[C@@H]2[C@H](CC[C@]3(C)C(=O)CC[C@@H]23)[C@@]2(C)C=CC(=O)C=C12 [EXEMESTANE]	171.1
NC(N)=Nc1nc(CSCC/C(N)=N/S(N)(=O)=O)cs1 [FAMOTIDINE]	167.2

Structure (SMILES)	collision cross section (N2) [Å²]
Nc1ccncc1 [FAMPRIDINE]	117.8
CC(C)OC(=O)C(C)(C)Oc1ccc(C(=O)c2ccc(Cl)cc2)cc1 [FENOFIBRATE]	190.5
CC1=C(/C=C/C(C)=C/C=C/C(C)=C/C(=O)Nc2ccc(O)cc2)C(C)(C)CCC1 [FENRETINIDE]	200.5
CCC(=O)c1c(O)cc(O)cc1O [FLOPROPIONE]	134.3
CC1CCc2cc(F)cc3c(=O)c(C(=O)O)cn1c23 (stereo not drawn) [FLUMEQUINE]	149.8
C[C@@H]1C[C@H]2[C@@H]3C[C@H](F)C4=CC(=O)C=C[C@]4(C)[C@@]3(F)[C@@H](O)C[C@]2(C)[C@@]1(O)C(=O)CO [FLUMETHASONE]	189.2
CC1(C)O[C@@H]2C[C@H]3[C@@H]4C[C@H](F)C5=CC(=O)C=C[C@]5(C)[C@@]4(F)[C@@H](O)C[C@]3(C)[C@]2(C(=O)CO)O1 [FLUOCINOLONE ACETONIDE]	199.7
CC(=O)OCC(=O)[C@@]12OC(C)(C)O[C@@H]1C[C@H]1[C@@H]3C[C@H](F)C4=CC(=O)C=C[C@]4(C)[C@@]3(F)[C@@H](O)C[C@@]12C [FLUOCINONIDE]	229.9
O=C1OC2(c3ccc(O)cc3Oc3cc(O)ccc32)c2ccccc21 [FLUORESCEIN]	172.3
CNCCC(Oc1ccc(C(F)(F)F)cc1)c1ccccc1 (stereo not drawn) [FLUOXETINE]	174.5
CC1(C)O[C@@H]2C[C@H]3[C@@H]4C[C@H](F)C5=CC(=O)CC[C@]5(C)[C@H]4[C@@H](O)C[C@]3(C)[C@]2(C(=O)CO)O1 [FLURANDRENOLIDE]	201.2
CC(C)n1c(/C=C/[C@@H](O)C[C@@H](O)CC(=O)O)c(-c2ccc(F)cc2)c2ccccc21 [FLUVASTATIN]	200.6
Nc1nc(=O)c2nc(CNc3ccc(C(=O)N[C@@H](CCC(=O)O)C(=O)O)cc3)cnc2[nH]1 [FOLIC ACID]	196.8
NCC1(CC(=O)O)CCCCC1 [GABAPENTIN]	138.6
CC(C)=CCCC1(C)C=Cc2c(O)c3c(c(CC=C(C)C)c2O1)OC12C(=CCCC1C(C)(C)O[C@@]2(C/C=C(\C)C(=O)O)C(=O)O)C3=O (stereo partly drawn) [GARCINOLIC ACID]	245.7
CC(=O)O[C@@H]1C[C@H]2C(C)(C)C(=O)C=C[C@]2(C)[C@H]2CC[C@@]3(C)[C@H](c4ccoc4)OC(=O)[C@H]4O[C@]43[C@@]21C [GEDUNIN]	205.7
O=c1c(-c2ccc(O)cc2)coc2cc(O)cc(O)c12 [GENISTEIN]	156.5
O=C(OCC(O)CO)c1ccccc1Nc1ccnc2cc(Cl)ccc12 (stereo not drawn) [GLAFENINE]	187.3
Cc1cnc(C(=O)NCCc2ccc(S(=O)(=O)NC(=O)NC3CCCCC3)cc2)cn1 [GLIPIZIDE]	196.5
COc1ccc2c(c1)=NC1=C(C)NCCC=21 [HARMALINE]	146.2
CC(=O)O[C@H]1CC[C@@]2(C)[C@@H](CC[C@@H]3[C@@H]2CC(=O)[C@]2(C)[C@@H]4[C@H](C[C@@H]32)O[C@]2(CC[C@@H](C)CO2)[C@H]4C)C1 [HECOGENIN ACETATE]	223.4
C[C@@H]1O[C@@H](O[C@H]2[C@H](O[C@H]3CC[C@@]4(C)[C@@H](CC[C@]5(C)[C@@H]4CC=C4[C@@H]6CC(C)(C)CC[C@]6(C(=O)O[C@@H]6O[C@H](CO[C@@H]7O[C@H](CO)[C@@H](O[C@@H]8O[C@@H](C)[C@H](O)[C@@H](O)[C@H]8O)[C@H](O)[C@H]7O)[C@@H](O)[C@H](O)[C@H]6O)CC[C@]45C)[C@]3(C)CO)OC[C@H](O)[C@@H]2O)[C@H](O)[C@H](O)[C@H]1O [HEDERACOSIDE C]	349.1
C=C1C(=O)O[C@@H]2C[C@@]3(C)CCC[C@H](C)C3=C[C@H]12 [HELENINE]	149.5
O=C1C=C2CC3(O)COc4c(ccc(O)c4O)C3=C2C=C1O (stereo not drawn) [HEMATEIN]	162.5
O=c1cc(-c2cc(O)c(O)c(O)c2)oc2cc(O)cc(O)c12 [HIERACIN]	163.4
C/C=C1\[C@H]2C=C(C)C[C@]1(N)c1ccc(=O)[nH]c1C2 [HUPERZINE A]	157.7
COc1ccc2c(c1OC)C(=O)O[C@@H]2[C@H]1c2cc3c(cc2CCN1C)OCO3 [HYDRASTINE (1R, 9S)]	186.3

same assay, conditions: [M+Na]+; instrument: TW; calibrated with polyalanine and drug standards

Structure (SMILES)	collision cross section (N2) [Å²]
CCCCOC(=O)c1ccccc1C(=O)OCCCC [DIBUTYL PHTHALATE]	180.7
C/C=C(/C(=C/C)c1ccc(O)cc1)c1ccc(O)cc1 [DIENESTROL]	153.2
CS(=O)(=O)c1ccc([C@@H](O)[C@@H](CF)NC(=O)C(Cl)Cl)cc1 [FLORFENICOL]	170.7
CC(=O)O[C@H]1C[C@@]2(C)[C@@H](C[C@@H](O)[C@H]3[C@@]4(C)CC[C@@H](O)[C@@H](C)[C@@H]4CC[C@@]32C)/C1=C(\CCC=C(C)C)C(=O)O [FUSIDIC ACID]	235.6
